Data as given in patent publication US5292737A, “N,N'-bis(sulfonamido)-2-amino-4-iminonaphthalen-1-ones and N,N'-bis(amido)-2-amino-4-iminonaphthalen-1-ones” (Sphinx Pharmaceuticals Corporation, priority 1992, dated 1994).

How the values were obtained:
Format in all cases: biochemical
[1] = biological target: cAMP dependent protein kinase (PKA); assay: cAMP Dependent Protein Kinase (PKA) Assay; settings: for IC50: catalytic subunit of PKA; for effect on PKA activity: result in words
Procedure, shortened: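 PKA catalytic subunit preincubated with test compound added from DMSO at final 30 and 150 μM; reaction started with ^32P-ATP, run 10 min, stopped with 25% TCA plus BSA. Phosphorylated protein collected by filtration and counted by beta scintillation.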

PKC isoenzyme δ = biological target: T1, PKC isoenzyme δ (Homo sapiens, UniProt Q05655); assay: Protein kinase C inhibition assay, PKC isoenzyme δ; settings: read-out: IC50 PKC δ
T1 construct: made in house; host or cells: baculovirus-insect cell expression system
T1 sequence (Q05655 whole entry): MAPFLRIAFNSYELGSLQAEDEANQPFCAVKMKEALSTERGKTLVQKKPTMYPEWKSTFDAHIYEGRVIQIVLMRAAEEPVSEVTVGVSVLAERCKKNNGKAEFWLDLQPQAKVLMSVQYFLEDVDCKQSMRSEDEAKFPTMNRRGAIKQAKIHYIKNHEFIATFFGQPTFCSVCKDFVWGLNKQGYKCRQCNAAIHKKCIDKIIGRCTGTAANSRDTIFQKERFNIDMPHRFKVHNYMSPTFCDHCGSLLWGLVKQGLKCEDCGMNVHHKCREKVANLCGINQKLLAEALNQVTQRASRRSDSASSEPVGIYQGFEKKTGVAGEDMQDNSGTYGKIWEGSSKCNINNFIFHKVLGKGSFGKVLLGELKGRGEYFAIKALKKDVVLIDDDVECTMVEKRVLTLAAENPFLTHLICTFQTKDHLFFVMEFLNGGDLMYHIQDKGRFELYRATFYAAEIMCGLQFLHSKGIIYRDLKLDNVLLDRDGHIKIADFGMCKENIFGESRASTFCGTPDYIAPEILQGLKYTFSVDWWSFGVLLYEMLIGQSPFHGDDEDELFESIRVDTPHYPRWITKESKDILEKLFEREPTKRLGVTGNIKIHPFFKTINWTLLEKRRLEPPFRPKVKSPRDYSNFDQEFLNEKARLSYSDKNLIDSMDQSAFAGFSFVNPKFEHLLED
Procedure, shortened: (§1)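 Radiometric filter assay: enzyme from baculovirus-infected insect cells, H1 or Mbp acceptor, PS/DAG vesicles at suboptimal lipid levels, physiologic-like buffer. Test compound 1–150 μM (four levels, DMSO). 10 min reaction, 25% TCA + BSA stop, scintillation count; IC50 = 50% inhibition of control activity.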

PKC isoenzyme ε = biological target: T2, PKC isoenzyme ε (Homo sapiens, UniProt Q02156); assay: Protein kinase C inhibition assay, PKC isoenzyme ε; settings: read-out: IC50 PKC ε
T2 construct: made in house; host or cells: baculovirus-insect cell expression system
T2 sequence (Q02156 1-737): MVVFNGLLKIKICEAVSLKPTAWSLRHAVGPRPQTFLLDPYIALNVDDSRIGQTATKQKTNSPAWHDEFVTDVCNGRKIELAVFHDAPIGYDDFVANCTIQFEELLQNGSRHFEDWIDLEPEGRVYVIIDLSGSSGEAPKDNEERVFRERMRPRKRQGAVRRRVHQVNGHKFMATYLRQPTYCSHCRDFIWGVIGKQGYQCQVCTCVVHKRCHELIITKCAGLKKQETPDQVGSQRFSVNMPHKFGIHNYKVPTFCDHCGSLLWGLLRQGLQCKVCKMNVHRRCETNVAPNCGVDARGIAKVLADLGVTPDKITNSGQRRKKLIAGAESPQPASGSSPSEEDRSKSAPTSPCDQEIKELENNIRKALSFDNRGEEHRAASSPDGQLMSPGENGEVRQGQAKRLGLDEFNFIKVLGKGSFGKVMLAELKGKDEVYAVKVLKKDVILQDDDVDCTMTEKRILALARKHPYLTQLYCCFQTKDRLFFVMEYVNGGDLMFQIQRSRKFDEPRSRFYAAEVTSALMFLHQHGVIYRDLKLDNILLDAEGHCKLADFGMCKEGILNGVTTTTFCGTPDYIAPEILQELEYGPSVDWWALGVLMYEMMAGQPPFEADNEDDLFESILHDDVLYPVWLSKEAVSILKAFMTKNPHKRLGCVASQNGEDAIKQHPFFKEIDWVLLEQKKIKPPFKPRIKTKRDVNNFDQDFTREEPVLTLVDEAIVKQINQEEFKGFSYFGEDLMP
Procedure, shortened: as §1

SMILES | IC50 [1] | effect on PKA activity [1] | IC50 (PKC isoenzyme δ) | IC50 (PKC isoenzyme ε)
Cc1cc(C)nc(NS(=O)(=O)c2ccc(N=C3C=C(Nc4ccc(S(=O)(=O)Nc5nc(C)cc(C)n5)cc4)C(=O)c4ccccc43)cc2)n1 [Compound 3c] | > 150 µM | did not effect on PKA activity | 72 µM | > 150 µM
Cc1cc(NS(=O)(=O)c2ccc(N=C3C=C(Nc4ccc(S(=O)(=O)Nc5cc(C)on5)cc4)C(=O)c4ccccc43)cc2)no1 [Compound 6a] | 157 µM |  | 34 µM | 145 µM
Cc1cc(C)nc(NS(=O)(=O)c2cccc(N=C3C=C(Nc4cccc(S(=O)(=O)Nc5cc(C)cc(C)n5)c4)C(=O)c4ccccc43)c2)c1 [Compound 3ae] | > 150 µM | did not effect on PKA activity | 85 µM | > 150 µM
O=C1C(Nc2ccc(S(=O)(=O)Nc3cnc4ccccc4n3)cc2)=CC(=Nc2ccc(S(=O)(=O)Nc3cnc4ccccc4n3)cc2)c2ccccc21 [Compound 3m] | 82 µM |  | 122 µM | > 150 µM
